Assay [1] has as its system Thymidine kinase (Human alphaherpesvirus 1). Put plainly: Compound was evaluated for the inhibitory activity against HSV-1 encoded thymidine kinase at 300 uM.
Assay [2] has the same test system. Put plainly: Compound was evaluated for the inhibitory activity against HSV-1 encoded thymidine kinase at 300 uM; 45-56% inhibition.

Molecules are shown by their SMILES.

For orientation: inhibition means the drop in the measured response relative to a control, in per cent. High values mean strong suppression, low ones little suppression.

As to `O=c1[nH]c(=O)n(COCCO)cc1I`, the inhibition in assay [1] was 56%.
In assay [2], `O=C(OCCOCn1ccc(=O)[nH]c1=O)c1ccccc1` showed an inhibition of 45%.
In assay [1], `O=c1[nH]c(=O)n(COCCO)cc1C(F)(F)F` had an inhibition of 56%.

Source of the values: ChEMBL document CHEMBL1121645, “Pyrimidine acyclic nucleosides, 1-[(2-Hydroxyethoxy)methyl]pyrimidines as candidate antivirals” (J Med Chem, 1981).
